Experimental data taken from publication PMC8037569, “Neuroprotective Effect of Aurantio-Obtusin, a Putative Vasopressin V1A Receptor Antagonist, on Transient Forebrain Ischemia Mice Model” (International Journal of Molecular Sciences, 2021).

System: C57BL/6 mice
Assay: Nissl staining, severity of neuronal damage after transient forebrain ischemia (BCCAO)
Assay type: in vivo, mouse
Settings: 10 mg/kg, p.o., vs BCCAO group, score 0 to 3, n = 6/group
Experimental: Male C57BL/6 mice (22–26 g, 7 weeks) were purchased from the Orient Co. Ltd., a branch of Charles River Laboratories (Seoul, Korea), and kept in the University Animal Care Unit for 1 week prior to the experiments. The animals were housed five per cage, allowed access to water and food ad libitum; the environment was maintained at a constant temperature (23 ± 1 °C) and humidity (60 ± 10%) under a 12-h light/dark cycle (the lights were on from 07:30 to 19:30 h). Forty mice were divided equally into four groups (sham + vehicle, n = 10; sham + drug, n = 10; bilateral common carotid artery occluded ischemia + vehicle, n = 10; bilateral common carotid artery occluded ischemia + drug, n = 10) for experiment. The treatment and maintenance of the animals were carried out in accordance with the Animal Care and Use Guidelines of Dong-A University, Korea. All in vivo experiments were performed according to the protocols approved by the Institutional Animal Care and Use Committee of Dong-A University (approved protocol numbers: DIACUC-approved-17-20) and were in accordance with the National Institutes of Health guidelines.
C57BL/6 mice were anesthetized with 2.0% isoflurane and 70% nitrous oxide in oxygen and subjected to transient forebrain ischemia. The transient forebrain ischemia was induced by bilateral common carotid artery occlusion (BCCAO) with aneurysm clips for 20 min, and the circulation was restored by removing the clips. Mice that received the same surgical operation without carotid artery clipping served as sham-operated controls. During the surgical procedure, the rectal temperature was maintained at 37 ± 0.5 °C with a heating pad (Biomed S.L., Barcelona, Spain). The regional cerebral blood flow (rCBF) was monitored using laser Doppler flowmetry (Perimed, PF5010, JarFalla, Sweden). […] After reperfusion, the animals were placed in a warm incubator (32–33 °C) and returned to their home cages. Aurantio-obtusin, which was dissolved in 10% Tween 80 solution, was administered from 1 h to 7 days after BCCAO (10 mg/kg, p.o., once daily).
One day after the test trial of passive avoidance test, mice were anesthetized with Zoletil 50® (10 mg/kg, i.m.) and then perfused transcardially with a 100 mM phosphate buffer (pH 7.4) followed by ice-cold 4% paraformaldehyde. The brains of the mice were removed and post-fixed in a phosphate buffer (50 mM, pH 7.4) containing 4% paraformaldehyde overnight, then immersed in a 30% sucrose solution (in 50 mM phosphate-buffered saline, PBS), and stored at 4 °C until sectioned. The frozen brains were coronally sectioned on a cryostat at 30 μm and then stored in a storage solution (30% ethylene glycol, 30% glycerin, and 20 mM phosphate buffer) at 4 °C. Hippocampal sections were collected based on the mouse brain atlas.
After the sections were mounted onto gelatin-coated slides, they were stained with 0.5% cresyl violet, dehydrated through graded alcohols (70, 80, 90, and 100% × 2), placed in xylene, and covered with a coverslip after the addition of Histomount media. The number of cells in selected regions (medial CA1, mCA1; dorsal CA1, dCA1; CA2; cortex) were determined using a computerized image analysis system (Leica Microsystems AG, Wetzlar, Germany). The cells were counted in six sections by every eight sections interval (total 48 sections) per animal by a person blind to the treatment group, and the average cell count per section was computed. The degree of damage by the Nissl staining after ischemia was semiquantitatively scored from 0 to 3 (0, normal; 1, <30% of the neurons were irreversibly damaged; 2, 30–60% of the neurons were irreversibly damaged; 3, 60–100% of the neurons were irreversibly damaged).

COc1c(O)cc2c(c1O)C(=O)c1c(cc(C)c(O)c1OC)C2=O [Aurantio-obtusin, 1,3,7-trihydroxy-2,8-dimethoxy-6-methylanthracene-9,10-dione]
Severity of neuronal damage in CA2: not in CA2 region | Severity of neuronal damage in cortex: significantly reduced the severity of damage | Severity of neuronal damage in dCA1: significantly reduced the severity of damage | Severity of neuronal damage in mCA1: significantly reduced the severity of damage | Severity of neuronal damage in cortex (listed as Aurnatio-obtusin): significantly reduced the severity | Severity of neuronal damage in dCA1 (listed as Aurnatio-obtusin): significantly reduced the severity | Severity of neuronal damage in mCA1 (listed as Aurnatio-obtusin): significantly reduced the severity
